Data published in patent publication US12653814B2, “Benzimidazolone-based cinnamamide derivative as TRPV1 antagonist and pharmaceutical composition for treatment or prevention of pain containing same as active ingredient” (JMACKEM CO., LTD, priority 2020, dated 2026).

What was measured:
[1] = even in the absence of partial agonism; cited from earlier work
[2] = during clinical trials; cited from earlier work
human TRPV1 (hTRPV1) [3] = target: T1, human TRPV1 (hTRPV1) (Homo sapiens, UniProt Q8NER1); experiment: Ca2+ influx assay, antagonism against capsaicin in hTRPV1-HEK recombinant cells; format: cell-based; settings: capsaicin 10 nM as activator, Fluo4-NW fluorescence, read-out: hTRPV1 IC50 [cap]
T1 construct: host or cells: HEK (PrecisION hTRPV1-HEK recombinant cell line)

[4] = Evaluation of bioavailability (BA), rat PK after intravenous and oral administration; format: in vivo, SD rats; settings: male, SD, plasma, 10 mg/kg, read-out: Bioavailability F (%)
Procedure: SD rats (Coatec, Hana Trading Co., Ltd., 7-8 weeks old, male, n=4, 250-300 g) were used for the experiment. The rats were bred in a small animal breeding room (experimental animal center) set at a temperature of 22±2° C., a relative humidity of 50±5%, an illumination time of 12 hours (08:00˜20:00), and an illumination intensity of 150 to 300 lux. Feed was fed freely during the entire test period, and RO water was provided freely. Before oral administration of the test substances (example compounds and comparative example compounds of the present invention), the rats were fasted for 16 hours.
The dosage of the example compounds and comparative example compounds of the present invention was 5 mg/kg when administered intravenously and 10 mg/kg when administered orally. For intravenous administration, a clear solution in which 10% DMSO, 10% Cremophor EL, and 80% PEG400 were dissolved was administered. For oral administration, a solution or suspension in which 10% DMSO and 10% Cremophor EL were dissolved in 80% DDW was administered.
After the intravenous or oral administration, blood was collected at 5 minutes, 15 minutes, 30 minutes, 1 hour, 2 hours, 4 hours, 6 hours and 8 hours, and the concentrations of the test substances (example compounds and comparative example compounds of the present invention) in plasma were measured by LC-MS/MS.
After adding 80 μl of acetonitrile (including internal standard) to 20 μl of plasma, centrifugation was performed for 5 minutes at 15,000 rpm at 4° C. with vortexing. The supernatant obtained after the centrifugation was analyzed by LC-MS/MS. For HPLC, Nexera XR system (Shimadzu, Japan) was used, and for mass spectrometer, TSQ vantage triple quadruple (Thermo, USA) was used.
The PK parameters were calculated with a non-compartmental analysis model using Phoenix WinNonlin 6.4 version (Pharsight, USA) program.
AUC was calculated using the linear trapezoidal rule in the rising plasma-level phase and the logarithmic trapezoidal rule in the declining phase.

human TRPV1 (hTRPV1) [5] = target: T1, human TRPV1 (hTRPV1); experiment: Evaluation of human pH inhibitory activity in hTRPV1-HEK recombinant cells; format: cell-based; settings: inhibition of activation at final pH 6.0, test substance 3 μM
Procedure: Evaluation of Human pH Inhibitory Activity
PrecisION™ hTRPV1-HEK recombinant cells (CYL3063) were purchased from Millipore and used. After culturing the above cells under the conditions of 37° C. and 5% CO2, the cells were inoculated in a 96-well plate at the density of 5×10^4 cells/well, followed by culture for 16 hours. Then, the medium was removed and 100 uL of a staining solution was put into each well, followed by culture for 30 minutes under the conditions of 37° C. and 5% CO2. After 30 minutes, all of the existing staining solution was removed and replaced with 100 uL of HBSS. Thereafter, the cells were acclimatized to room temperature for 15 minutes, and the test substances (example compounds and comparative example compounds of the present invention) were added to each well, followed by culture at room temperature for 15 minutes. Then, the final pH was adjusted to 6.0 using MES, and fluorescence was measured (ex485/em535). In the pH assay, the efficacy of the drug was evaluated using BCTC as a TRPV1 antagonist.

T1 sequence (Q8NER1 whole entry): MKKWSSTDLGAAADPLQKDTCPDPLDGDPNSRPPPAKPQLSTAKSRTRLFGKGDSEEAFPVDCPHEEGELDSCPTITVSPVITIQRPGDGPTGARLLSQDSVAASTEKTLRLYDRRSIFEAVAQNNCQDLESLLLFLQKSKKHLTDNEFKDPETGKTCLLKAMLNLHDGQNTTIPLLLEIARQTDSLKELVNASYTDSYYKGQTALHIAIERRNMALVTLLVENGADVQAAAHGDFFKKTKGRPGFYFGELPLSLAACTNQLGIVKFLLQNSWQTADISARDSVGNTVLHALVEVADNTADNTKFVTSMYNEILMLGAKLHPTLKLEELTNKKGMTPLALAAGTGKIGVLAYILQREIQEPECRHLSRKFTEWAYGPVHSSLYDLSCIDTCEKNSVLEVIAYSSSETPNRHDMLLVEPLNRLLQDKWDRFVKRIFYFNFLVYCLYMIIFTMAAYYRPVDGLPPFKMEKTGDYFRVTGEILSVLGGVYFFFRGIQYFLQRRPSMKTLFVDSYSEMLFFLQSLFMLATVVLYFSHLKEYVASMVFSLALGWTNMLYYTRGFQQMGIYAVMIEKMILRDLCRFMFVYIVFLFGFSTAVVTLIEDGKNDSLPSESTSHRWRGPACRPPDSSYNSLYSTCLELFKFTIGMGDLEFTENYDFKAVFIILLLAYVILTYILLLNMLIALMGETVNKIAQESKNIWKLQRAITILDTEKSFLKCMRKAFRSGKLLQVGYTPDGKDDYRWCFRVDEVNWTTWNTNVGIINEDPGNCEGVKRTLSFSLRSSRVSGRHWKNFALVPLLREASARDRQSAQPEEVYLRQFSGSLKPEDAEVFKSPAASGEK

SMILES	effect on body temperature [1]	subject's body temperature rose to [2]	IC50 (human TRPV1 (hTRPV1) [3])	bioavailability [4]	hTRPV1 pH (%, 3 μM) (human TRPV1 (hTRPV1) [5])
FC(F)(F)c1ccc(-c2cc(Nc3ccc4ncsc4c3)ncn2)c(NCC2CCCCC2)c1 [AMG7905]	cause hypothermia				
O=C(/C=C/c1ccc(C(F)(F)F)cc1N1CCCCC1)Nc1cccc2c1C[C@H](O)C2 [AMG8562]	cause hypothermia				
CC(=O)Nc1nc2c(Oc3cc(-c4ccc(C(F)(F)F)cc4)ncn3)cccc2s1 [AMG 517]		40.2 °C			
O=C(NCc1ccc(C(F)(F)F)nc1N1CCCC1)Nc1cccc2[nH]c(=O)[nH]c12 [Comparative Example 1, 1-(2-oxo-1,3-dihydrobenzimidazol-4-yl)-3-[[2-pyrrolidin-1-yl-6-(trifluoromethyl)-3-pyridyl]methyl]urea, reference compound]			18.4 nM	2.3%	
CC(C)Oc1nc(C(F)(F)F)ccc1CNC(=O)Nc1cccc2[nH]c(=O)[nH]c12 [Comparative Example 2, 1-[[2-isopropoxy-6-(trifluoromethyl)-3-pyridyl]methyl]-3-(2-oxo-1,3-dihydrobenzimidazol-4-yl)urea, reference compound]			23.4 nM	1%	
O=C(NCc1ccc(C(F)(F)F)nc1N1CCCCC1)Nc1cccc2[nH]c(=O)[nH]c12 [Comparative Example 3, 1-(2-oxo-1,3-dihydrobenzimidazol-4-yl)-3-[[2-(1-piperidyl)-6-(trifluoromethyl)-3-pyridyl]methyl]urea, reference compound]			13.5 nM	3%	
O=C(/C=C/c1ccc(C(F)(F)F)nc1N1CCCC1)Nc1cccc2[nH]c(=O)[nH]c12 [Example 3, (E)-N-(2-oxo-2,3-dihydro-1H-benzo[d]imidazol-4-yl)-3-(2-(pyrrolidin-1-yl)-6-(trifluoromethyl)pyridin-3-yl)acrylamide]			15.7 nM	13.2%	52.56%
O=C(/C=C/c1ccc(C(F)(F)F)nc1N1CCCCC1)Nc1cccc2[nH]c(=O)[nH]c12 [Example 4, (E)-N-(2-oxo-2,3-dihydro-1H-benzo[d]imidazol-4-yl)-3-(2-(piperidin-1-yl)-6-(trifluoromethyl)pyridin-3-yl)acrylamide]			11.3 nM	12.5%	49.86%
CC(C)COc1nc(C(F)(F)F)ccc1/C=C/C(=O)Nc1cccc2[nH]c(=O)[nH]c12 [Example 10, (E)-3-(2-isobutoxy-6-(trifluoromethyl)pyridin-3-yl)-N-(2-oxo-2,3-dihydro-1H-benzo[d]imidazol-4-yl)acrylamide]			13 nM	25.9%	53.26%
O=C(/C=C/c1ccc(C(F)(F)F)nc1OCC1CC1)Nc1cccc2[nH]c(=O)[nH]c12 [Example 13, (E)-3-(2-(cyclopropylmethoxy)-6-(trifluoromethyl)pyridin-3-yl)-N-(2-oxo-2,3-dihydro-1H-benzo[d]imidazol-4-yl)acrylamide]			13.7 nM	35.6%	30.67%
CC1(c2nc(-c3cccc(Cl)c3)c(/C=C/C(=O)Nc3cccc4[nH]c(=O)[nH]c34)s2)CC1 [Example 57, (E)-3-(4-(3-chlorophenyl)-2-(1-methylcyclopropyl)thiazol-5-yl)-N-(2-oxo-2,3-dihydro-1H-benzo[d]imidazol-4-yl)acrylamide]			39.8 nM		61.78%
CC(C)COc1nc(C(F)(F)F)ccc1CCC(=O)Nc1cccc2[nH]c(=O)[nH]c12 [Example 59, 3-(2-isobutoxy-6-(trifluoromethyl)pyridin-3-yl)-N-(2-oxo-2,3-dihydro-1H-benzo[d]imidazol-4-yl)propaneamide]			40.7 nM		59.32%
O=C(CCc1ccc(C(F)(F)F)nc1OCC1CC1)Nc1cccc2[nH]c(=O)[nH]c12 [Example 60, 3-(2-(cyclopropylmethoxy)-6-(trifluoromethyl)pyridin-3-yl)-N-(2-oxo-2,3-dihydro-1H-benzo[d]imidazol-4-yl)propaneamide]			23.7 nM		67.19%
O=C(Nc1cccc2[nH]c(=O)[nH]c12)C1CC1c1cc(C(F)(F)F)nn1-c1cccc(Cl)c1 (centres unmarked) [Example 63, 2-(1-(3-chlorophenyl)-3-(trifluoromethyl)-1H-pyrazol-5-yl)-N-(2-oxo-2,3-dihydro-1H-benzo[d]imidazol-4-yl)cyclopropane-1-carboxamide]			10.3 nM		0.53%
